Structures can show the parent of a compound that is named as a salt. Starred links: 1 amine or outer side, 2 acyl side, 3 side chain; linkers in the order of their positions; H or OH if unused. Positions of bridges follow the written chain, without caps; N, C: chain ends. Non-standard residues stand in square brackets, D forms with d. Residues, ends and D or L forms follow the SMILES beside them. Chains are numbered I, II in the order given. Actinocin(9to1) = Cc1c2oc3c(C)ccc(C(=O)[*:1])c3nc-2c(C(=O)[*:2])c(N)c1=O; NMeV = CN[C@H](C(=O)O)C(C)C; Sar = CNCC(=O)O
Assays:
IL-4 = experiment: In vivo ovalbumin (OVA) mouse model, BALF IL-4; details: i.n.
Procedure: (§1) This model is designed to determine the ability of a test article to modulate an antigen-induced pulmonary inflammatory cell accumulation in sensitized Balb/c mice from Charles River Laboratories. The mice are given a two week time period from arrival date prior to sensitizations.
(§2) On days 0, 7, 14, each animal is injected intraperitoneal (i.p.) with a 0.2 ml Ovalbumin Hydragel solution. Each animal receives 10 μg of Ovalbumin in 0.2 mL of Hydragel, aluminum hydroxide adsorptive gel containing 2% aluminum oxide. On Day 21, the animals are dosed with test compounds 30-60 minutes prior to 5% Ovalbumin aerosolized challenge. On day 22, BALF samples are collected from one group of animals and used for cytokine analysis. On day 24, BALF is obtained from a second group of animals and used for differential cell counts.
(§3) Test System: Female Babl/cJ mice (Jackson Laboratories), approximately 6-9 weeks old, each weighing approximately 20 to 25 grams, are divided into ten animals per group.
(§4) Sensitization Regimen: Mice are sensitized by an intraperitoneal injection of 10 μg ovalbumin (OVA) mixed in 4 mg aluminum hydroxide Al(OH)3 gel suspension in 0.2 ml sterile saline on Days 0, 7 and 14. This suspension is prepared one hour before intraperitoneal injection into each mouse. The animals are ready for OVA challenge on Day 21.
(§5) Antigen Challenge: Animals are exposed to aerosolized OVA on day 21 (5% w/v in sterile saline) for 20 minutes. The aerosol is generated by a PARI-Master nebulizer, the outlet of which is connected to a small Plexiglas® chamber containing the animals. Bronchoalveolar lavage is performed on Day 22.
(§6) Method of Study Performance: On day 24, 72 hours following aerosol OVA exposure, a separate group of animals are anesthetized with urethane (0.15-0.2 gm/kg) and the trachea is exposed and cannulated. Lungs are lavaged with 2×0.5 ml Hank's balanced salt solution without Ca^2+ and Mg^2+ (HBSS; Gibco, Grand Island, N.Y.) containing 0.1% EDTA. Lavage fluid is recovered after 30 sec by gentle aspiration and pooled for each animal. Samples are centrifuged at 2000 rpm for 15 minutes at 5° C. After centrifugation, individual supernatants are stored frozen at −80° C. The resulting pellet is resuspended in 0.5 ml of HBSS containing 0.1% EDTA. Total cells and eosinophils are determined using a Technicon Hl and cytoslides, respectively.
Administration of the Test/Control Article: The test article and vehicle dosing preparations are administered once to each anesthetized mouse intranasally using a 200 μl pipette at 30-60 minutes prior to OVA challenge. Each animal receives 50 μl (25 μl/nostril) at each time point. Method of Euthanasia: Urethane overdose at in-life completion.
Statistical Analysis: Total cell and eosinophil number from various treatment groups is compared using an ANOVA followed by a multiple comparison test.
Compounds administered 30 minutes before aerosol ovalbumin challenge in ova sensitized mice. BALF harvested 24 hours after aerosol challenge. N=6/group.
FIG. 1 summarizes results from one representative experiment (out of three) in which in addition to BALF cytokines, lung eosinophilia is also determined. Mice (12 animals per group) are sensitized with 0.2 ml of an AlOH3 hydrogel suspension (2% AlOH3) containing 50 μg/ml ovalbumin on days 0, 7 and 14. […] After the OVA challenge for 24 hours, the mice underwent bronchoalveolar lavage and IL-4 and IL-13 levels in the BALF are determined by ELISA. […]

eosinophils = experiment: In vivo ovalbumin (OVA) mouse model, BALF eosinophils; details: i.n., 30 mg/kg
Procedure: as §1, §2, §3, §4, §5
as §6, with “respectively. […]” for “respectively.”
FIG. 1 summarizes results from one representative experiment (out of three) in which in addition to BALF cytokines, lung eosinophilia is also determined. […] After the OVA challenge for 24 hours, the mice underwent bronchoalveolar lavage and IL-4 and IL-13 levels in the BALF are determined by ELISA. […]

Swiss 3T3 fibroblasts = experiment: In vitro cytotoxicity assay on contact inhibited 3T3 fibroblasts (MTS); assay type: cell-based; details: non-dividing 3T3 cells
Procedure: Other toxicity assays may be used.
Any compound killing 3T3 fibroblast cells was omitted from further studies.
Contact inhibited Swiss 3T3 fibroblasts are purchased from ATCC.
All compound dilutions are assayed in triplicate. […] Cells are returned to the incubator for 2 days.
Media is added to blank wells for background calculations.
Note that starting concentration of CsA was 1 μM.

| Compound | melting point | IL-4% ctl At 24 hours (IL-4; 30 mg/kg) | Eos % ctl At 72 hours (eosinophils) | also measured |
| --- | --- | --- | --- | --- |
| CCOC(=O)c1[nH]c2cc(Cl)ccc2c1Nc1ccncc1 [Example 13, 6-chloro-3-(4-pyridinylamino)-1H-indole-2-carboxylic acid, ethyl ester] | 258 to 261 °C (dec.) | – | – | – |
| CCOC(=O)c1[nH]c2cc(Cl)cc(Cl)c2c1NS(=O)(=O)c1ccccc1 [Example 90, 3-((Phenylsulfonyl)amino)-4,6-dichloro-1H-indole-2-carboxylic acid ethyl ester] | – | 37 % ctl | 71 % ctl | – |
| O=C(O)c1[nH]c2ccccc2c1Nc1ccncc1 [Example 28-ZD, 3-(4-Pyridinylamino)-1H-indole-2-carboxylic acid] | – | 49.6 % ctl | 37.4 % ctl | – |
| O=C(O)c1[nH]c2ccccc2c1Nc1ccncc1 [28 (maleate salt), 3-(4-Pyridinylamino)-1H-indole-2-carboxylic acid] | – | – | – | IL-4% ctl At 24 hours (IL-4; 12 mg/kg): 50 % ctl |
| Cc1c2oc3c(C)ccc(C(=O)N[C@@H]4C(=O)N[C@H](C(C)C)C(=O)N5CCC[C@H]5C(=O)N(C)CC(=O)N(C)[C@@H](C(C)C)C(=O)O[C@@H]4C)c3nc-2c(C(=O)N[C@@H]2C(=O)N[C@H](C(C)C)C(=O)N3CCC[C@H]3C(=O)N(C)CC(=O)N(C)[C@@H](C(C)C)C(=O)O[C@@H]2C)c(N)c1=O [Actinomycin D, reference compound] (I: T[dV]P[Sar][NMeV] / II: T[dV]P[Sar][NMeV]; ester I:1-I:C, II:1-II:C; linker I:N-II:N via Actinocin(9to1)) | – | – | – | toxic effects on quiescent 3T3 cells (in words) (Swiss 3T3 fibroblasts): the only compound which effected the viability |
| CCOC(=O)c1[nH]c2ccccc2c1Nc1ccncc1 [Example 11, 3-(4-pyridinylamino)-1H-indole-2-carboxylic acid, ethyl ester] | 248 to 250 °C | – | – | – |
| O=C(O)c1[nH]c2ccccc2c1Nc1ccncc1 [Example 28-EF, 3-(4-Pyridinylamino)-1H-indole-2-carboxylic acid] | – | 27 % ctl | 42 % ctl | – |
| CCOC(=O)c1[nH]c2cc(-c3ccccc3)ccc2c1Nc1ccncc1 [Example 18, 6-phenyl-3-(4-pyridinylamino)-1H-indole-2-carboxylic acid, ethyl ester] | 241 to 243 °C | – | – | – |
| CCOC(=O)c1c(Nc2ccncc2)c2ccccc2n1C [Example 24A (maleate salt), 1-Methyl-3-(4-pyridinylamino)-1H-indole-2-carboxylic ethyl ester] | – | 3 % ctl | 8 % ctl | – |
